# Paper PMC6152064 (Molecules : A Journal of Synthetic Chemistry and Natural …, 2017)
# Where “and” joins values, the source holds several entries; their conditions need not be identical. Equal values may be shown once.
# Experiments:
# [1] = biological target: T1, hGal8^NTD (N-terminal domain of human galectin-8) (Homo sapiens, UniProt O00214); assay: NMR titration, global fit of chemical shift perturbations (CSP); assay type: binding; conditions: 298 K, global fit of CSPs > 2σ
# T1 construct: hexahistidine tag (N); made in house; host or cells: Escherichia coli BL21 (DE3)
# T1 sequence (O00214 1-155 limits assumed): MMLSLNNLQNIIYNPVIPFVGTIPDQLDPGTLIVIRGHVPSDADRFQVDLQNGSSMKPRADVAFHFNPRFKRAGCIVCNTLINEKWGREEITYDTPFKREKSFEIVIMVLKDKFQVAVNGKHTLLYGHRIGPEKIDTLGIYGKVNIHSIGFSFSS
# [2] = biological target: T2, hGal8^CTD (C-terminal domain of human galectin-8) (Homo sapiens, UniProt O00214); assay: as above; assay type: binding; conditions: 298 K, global fit of CSPs > 2σ
# T2 construct: the N-terminal and C-terminal domains of galectin-8 (hGal8^NTD and hGal8^CTD, respectively); made in house; host or cells: Escherichia coli BL21 (DE3)
# T2 sequence (O00214 187-317 limits assumed): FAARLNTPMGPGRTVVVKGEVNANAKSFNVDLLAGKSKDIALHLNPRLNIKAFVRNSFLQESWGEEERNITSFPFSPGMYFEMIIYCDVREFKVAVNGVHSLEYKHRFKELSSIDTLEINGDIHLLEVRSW
# [3] = biological target: T2, hGal8^CTD (C-terminal domain of human galectin-8); assay: 2D NMR lineshape analysis (TITAN), two-state binding model; conditions: 298 K
# Protocol: (§1) HSQC spectra were also analysed by the TITAN program using a two-state binding model. […] Eight peaks with significant CSPs were chosen to be fitted for each titration experiment. Error analysis was performed by the bootstrap resampling module in the program with 100 resampled spectra.
# [4] = biological target: T1, hGal8^NTD (N-terminal domain of human galectin-8); assay: as above; conditions: Lactose Kd, 298 K
# Protocol: as §1
# [5] = biological target: T3, hGal7 (Homo sapiens, UniProt P47929); assay: Lactose binding affinity, summary over NMR, intrinsic fluorescence, BLI and ITC
# T3 construct: The constructs encoding the open reading frames of hGal1, hGal7 and hGal8 with a hexahistidine tag at the N-termini; hexahistidine (N); made in house; host or cells: Escherichia coli BL21 (DE3)
# Protocol: (§2) The samples were subjected to intrinsic fluorescence measurements using a 3 mm quartz cell (Hellma) and a fluorimeter (Jasco FP-8500, Hachioji, Tokyo, Japan). […] The resulting titration data were processed by SVD analysis, as described previously.
# (§3) BLI experiments were carried out using an Octet Red96 system (FortéBio, Menlo Park, CA, USA), as described previously.
# as §1
# [6] = biological target: glutathione-S-transferase (GST)-fused hGal8^NTD; parameters: method as in PMID 12851289; conditions: read-out: lactose Kd (SPR); cited from earlier work
# [7] = biological target: GST-fused hGal8^CTD; parameters: method as in PMID 12851289; conditions: read-out: lactose Kd (SPR); cited from earlier work
# [8] = biological target: GST-fused tandem-repeat construct (hGal8); parameters: method as in PMID 12851289; conditions: read-out: apparent lactose Kd (SPR); cited from earlier work
# [9] = biological target: hGal1 (human galectin-1) (Homo sapiens, UniProt P09382); assay: Isothermal titration calorimetry (ITC); conditions: 298 K, PBS
# Protocol: (§5) The experiments were carried out at 298 K and in PBS. […] The thermograms were extracted, processed and subjected to nonlinear regression using the built-in software based on Origin (OriginLab, Northampton, MA, USA) to determine the respective binding constants.
# [10] = biological target: T4, hGal7 (human galectin-7) (Homo sapiens, UniProt P47929); assay: Isothermal titration calorimetry (ITC)
# Protocol: as §5
# [11] = biological target: T5, hGal8^NTD (Homo sapiens, UniProt O00214); assay: Isothermal titration calorimetry (ITC)
# T5 sequence (O00214 1-155 limits assumed): T1 sequence (O00214 1-155 limits assumed)
# Protocol: as §5
# [12] = biological target: T6, hGal8^CTD (Homo sapiens, UniProt O00214); assay: Isothermal titration calorimetry (ITC)
# T6 sequence (O00214 187-317 limits assumed): T2 sequence (O00214 187-317 limits assumed)
# Protocol: as §5
# [13] = biological target: T7, hGal8^full(NTD) (NTD of full-length galectin-8) (Homo sapiens, UniProt O00214); assay: NMR titration, global fit of chemical shift perturbations (CSP); conditions: Lactose Kd, NTD of full-length hGal8 (tandem-repeat, 17-residue linker), 298 K
# T7 sequence (O00214 1-317): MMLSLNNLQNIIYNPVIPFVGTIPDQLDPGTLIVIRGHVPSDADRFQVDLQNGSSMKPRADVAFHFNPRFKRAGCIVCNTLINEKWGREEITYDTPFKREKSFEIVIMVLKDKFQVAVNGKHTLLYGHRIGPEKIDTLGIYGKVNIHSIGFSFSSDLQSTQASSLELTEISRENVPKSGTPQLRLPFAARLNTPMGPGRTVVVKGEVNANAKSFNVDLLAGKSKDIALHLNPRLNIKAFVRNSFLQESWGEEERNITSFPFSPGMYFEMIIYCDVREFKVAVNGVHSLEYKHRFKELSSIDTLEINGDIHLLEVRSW
# [14] = biological target: T8, hGal8^full(CTD) (CTD of full-length galectin-8) (Homo sapiens, UniProt O00214); assay: as above; conditions: Lactose Kd, CTD of full-length hGal8 (tandem-repeat, 17-residue linker), 298 K
# T8 sequence (O00214 1-317): T7 sequence (O00214 1-317)
# [15] = biological target: T5, hGal8^NTD; assay: Intrinsic tryptophan fluorescence titration (SVD analysis); assay type: binding; parameters: hexahistidine tag (N); made in house; host or cells: Escherichia coli BL21 (DE3); conditions: 298 K, PBS, 10 μM protein
# Text: as §2
# [16] = biological target: T5, hGal8^NTD; assay: Bio-layer interferometry (BLI), steady-state fit; assay type: binding; parameters: hexahistidine tag (N); made in house; host or cells: Escherichia coli BL21 (DE3); conditions: biotinylated galectin on SSA biosensor
# Protocol: as §3
# [17] = biological target: T5, hGal8^NTD; assay: Lactose binding affinity, summary over NMR, intrinsic fluorescence, BLI and ITC; parameters: hexahistidine tag (N); made in house; host or cells: Escherichia coli BL21 (DE3); conditions: summary over the biophysical tools
# Protocol: as §2, §3, §1
# [18] = biological target: T6, hGal8^CTD; assay: Intrinsic tryptophan fluorescence titration (SVD analysis); assay type: binding; parameters: hGal8 N-terminal domain (hGal8^NTD) and C-terminal domain (hGal8^CTD); made in house; host or cells: Escherichia coli BL21 (DE3); conditions: 298 K, PBS, 10 μM protein
# Text: as §2
# [19] = biological target: T6, hGal8^CTD; assay: Bio-layer interferometry (BLI), steady-state fit; assay type: binding; parameters: hGal8 N-terminal domain (hGal8^NTD) and C-terminal domain (hGal8^CTD); made in house; host or cells: Escherichia coli BL21 (DE3); conditions: biotinylated galectin on SSA biosensor
# Protocol: as §3
# [20] = biological target: T6, hGal8^CTD; assay: Lactose binding affinity, summary over NMR, intrinsic fluorescence, BLI and ITC; parameters: hGal8 N-terminal domain (hGal8^NTD) and C-terminal domain (hGal8^CTD); made in house; host or cells: Escherichia coli BL21 (DE3); conditions: summary over the biophysical tools
# Protocol: as §2, §3, §1
# [21] = biological target: T8, hGal8^full(CTD) (CTD of full-length galectin-8); assay: 2D NMR lineshape analysis (TITAN), two-state binding model; parameters: A full-length hGal8 (hGal8^full) variant encompassing a 17-residue linker was used; hexahistidine tag (N); made in house; host or cells: Escherichia coli BL21 (DE3); conditions: CTD of full-length hGal8 (N215), 298 K
# Protocol: (§4) The advantage of using NMR titration to determine Kd values is the ability to simultaneously characterise microscopy binding events at different binding sites. […] The same lineshape analysis was performed for hGal8^full titration experiments, which yielded similar Kd values to those derived from CSP data (Figure S2; Table 1).
# as §1
# [22] = biological target: T7, hGal8^full(NTD) (NTD of full-length galectin-8); assay: as above; parameters: A full-length hGal8 (hGal8^full) variant encompassing a 17-residue linker was used; hexahistidine tag (N); made in house; host or cells: Escherichia coli BL21 (DE3); conditions: NTD of full-length hGal8 (G127), 298 K
# Protocol: as §4, §1
# [23] = biological target: T4, hGal7 (human galectin-7); assay: NMR titration, global fit of chemical shift perturbations (CSP); assay type: binding; parameters: The constructs encoding the open reading frames of hGal1, hGal7 and hGal8 with a hexahistidine tag at the N-termini; hexahistidine tag (N); made in house; host or cells: Escherichia coli BL21 (DE3); conditions: 298 K, global fit of CSPs > 2σ
# [24] = biological target: T4, hGal7 (human galectin-7); assay: 2D NMR lineshape analysis (TITAN), two-state binding model; parameters: The constructs encoding the open reading frames of hGal1, hGal7 and hGal8 with a hexahistidine tag at the N-termini; hexahistidine tag (N); made in house; host or cells: Escherichia coli BL21 (DE3); conditions: 298 K
# Protocol: as §1
# [25] = biological target: T4, hGal7 (human galectin-7); assay: Intrinsic tryptophan fluorescence titration (SVD analysis); assay type: binding; parameters: The constructs encoding the open reading frames of hGal1, hGal7 and hGal8 with a hexahistidine tag at the N-termini; hexahistidine tag (N); made in house; host or cells: Escherichia coli BL21 (DE3); conditions: Lactose Kd, 298 K, PBS, 10 μM protein
# Text: as §2
# [26] = biological target: T4, hGal7 (human galectin-7); assay: Bio-layer interferometry (BLI), steady-state fit; assay type: binding; parameters: The constructs encoding the open reading frames of hGal1, hGal7 and hGal8 with a hexahistidine tag at the N-termini; hexahistidine tag (N); made in house; host or cells: Escherichia coli BL21 (DE3); conditions: biotinylated galectin on SSA biosensor
# Protocol: as §3
# [27] = biological target: hGal3; conditions: cited from earlier work
# Chain of hGal1 (human galectin-1) (P09382 whole entry): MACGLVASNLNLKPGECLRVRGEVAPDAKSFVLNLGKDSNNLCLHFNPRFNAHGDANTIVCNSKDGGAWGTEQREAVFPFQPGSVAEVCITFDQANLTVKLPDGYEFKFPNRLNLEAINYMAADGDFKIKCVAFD
# T4 sequence (P47929 whole entry): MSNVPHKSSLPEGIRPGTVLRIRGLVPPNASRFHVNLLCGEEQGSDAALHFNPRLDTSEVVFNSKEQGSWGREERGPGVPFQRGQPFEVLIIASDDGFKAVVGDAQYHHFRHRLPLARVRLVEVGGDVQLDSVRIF
# T3 sequence (P47929 whole entry): as above
smiles,measurement,setting,value
"OC[C@H]1O[C@@H](O[C@H]2[C@H](O)[C@@H](O)C(O)O[C@@H]2CO)[C@H](O)[C@@H](O)[C@H]1O (mixture of isomers) [Lactose, lactose]",Kd,[1],84 ± 9 µM
same,Kd,[2],664 ± 59 µM
same,Kd,[3],950 ± 10 µM
same,Kd,[4],86.3 µM and 86 µM
same,Kd,[5],~350 µM
same,Kd,[6],80 µM
same,Kd,[7],440 µM
same,Kd,[8],140 µM
same,N (ITC OneSites model),[9],1.51 ± 0.113 sites
same,ΔH (ITC OneSites model),[9],-5.772 ± 0.4897 kcal/mol
same,ΔS (ITC OneSites model),[9],-2.53 cal/mol/deg
same,Kd,[10],323 µM
same,N (ITC OneSites model),"[10]; hGal7, 298 K, PBS",0.0702 ± 0.00475 sites
same,ΔH (ITC OneSites model),"[10]; hGal7, 298 K, PBS",-1.883E4 ± 1326 cal/mol
same,ΔS (ITC OneSites model),"[10]; hGal7, 298 K, PBS",-47.2 cal/mol/deg
same,Kd,[11],93 ± 1 µM
same,"K (binding constant, ITC OneSites model)","[11]; hGal8^NTD, 298 K, PBS",1.08E4 ± 121 M-1
same,N (ITC OneSites model),"[11]; hGal8^NTD, 298 K, PBS",0.818 ± 0.0154 sites
same,ΔH (ITC OneSites model),"[11]; hGal8^NTD, 298 K, PBS",-1.466E4 ± 302.2 cal/mol
same,ΔS (ITC OneSites model),"[11]; hGal8^NTD, 298 K, PBS",-30.7 cal/mol/deg
same,Kd,[12],893 ± 25 µM
same,"K (binding constant, ITC OneSites model)","[12]; hGal8^CTD, 298 K, PBS",1.12E3 ± 31.0 M-1
same,N (ITC OneSites model),"[12]; hGal8^CTD, 298 K, PBS",1.68 ± 0.212 sites
same,ΔH (ITC OneSites model),"[12]; hGal8^CTD, 298 K, PBS",-3.045 ± 0.4012 kcal/mol
same,ΔS (ITC OneSites model),"[12]; hGal8^CTD, 298 K, PBS",3.74 cal/mol/deg
same,Kd,[13],~130 µM and 128 µM
same,Kd,[14],~1500 µM and 1480 µM
same,Kd,[15],88 ± 2 µM
same,Kd,[16],89 ± 26 µM
same,Kd,[17],84 to 93 µM and 80 µM
same,Kd,[18],772 ± 56 µM
same,Kd,[19],873 ± 526 µM
same,Kd,[20],664 to 950 µM and 800 µM
same,Kd,[21],1186 ± 11 µM
same,Kd,[22],167 ± 7 µM
same,Kd,[23],397 ± 14 µM
same,Kd,[24],352 ± 9 µM
same,Kd,[25],340 µM and 331 µM
same,Kd,[26],347 ± 180 µM
OC[C@H]1O[C@@H](S[C@@H]2O[C@H](CO)[C@H](O)[C@H](n3cc(-c4cccc(F)c4)nn3)[C@H]2O)[C@H](O)[C@@H](n2cc(-c3cccc(F)c3)nn2)[C@H]1O [TD139],Kd,[27],low nanomolar
